Consider 17 molecules from patent US11920165B2, “Cultivation of human noroviruses” (Baylor College of Medicine, priority 2015, dated 2024).

Assay [1] relates to TCH04-577 GII.3 HuNoV. The experiment in a line: microbe, parasite or virus in culture. To be noted: Norovirus, in Homo sapiens, 72 h, read-out: Fold increase in viral genome copies compared to no bile (0-72 hpi).
Method: (§2) At 72 hours post infection, the cells and media were harvested and viral RNA was quantified by qRT-PCR. Each bile acid was added at a concentration of 0.5 mM.
The test system of assay [2] is TCH04-577 GII.3 HuNoV. Conditions: J2 enteroids.
Method: as §2
For assay [3], the system named is TCH04-577 GII.3 HuNoV. The experiment in a line: GII.3 replication in J2 jHIE monolayers with ceramide and GCDCA. The format is cell-based, human norovirus. Conditions: ceramide alone; 24 hpi. On the procedure:
FIG. 32. At least one lipid, ceramide, enhances GII.3 HuNoV replication alone or in combination with the bile acid GCDCA.J2 jHIE monolayers (p.12) were inoculated with 4.3×105 genome equivalents of TCH04-577 for 1 hr, and after washing twice with CMGF(−) media to remove unbound virus, culture continued in differentiation medium for 24 hrs. The amount of infectious virus was quantified after the washing at 1 hpi (black bars) and at 24 hpi (gray bars). Additives were added to the medium during and post inoculation.
(§1) FIG. 33. Ceramide alone, or in combination with the bile acid GCDCA, enhances GII.3 but not GII.4 HuNoV replication. J2 jHIE monolayers (p.23) were inoculated with 4.3×105 or 9×105 genome equivalents of TCH04-577 or TCH12-580, respectively, for 1 hr and, and after washing twice with CMGF(−) media to remove unbound virus, culture continued in differentiation medium for 72 hrs. The amount of infectious virus was quantified after the washing at 1 hpi (black bars) and 72 hpi (gray bars). Additives (500 μM GCDCA or 500 μM GCDCA+50 μM C2-ceramide) were added to the medium during and post inoculation. Error bars denote standard deviation. p<0.01 comparing genome equivalents at 72 hpi between GCDCA and ceramide+GCDCA.

Another assay deals with GII.4 HuNoV. Description: GII.4 HuNoV replication in jejunal HIE monolayers with bile, bile fractions or additives (RT-qPCR). In kind it is cell-based, human norovirus. Conditions: GCDCA bile acid. On the procedure:
FIGS. 26A-26D. Bile is not required but enhances GII.4 HuNoV replication. […] The monolayers were inoculated with 5.5×10^5 genome equivalents of (FIG. 26A) GII.4/2006b-3 or, (FIG. 26B) GII.4/2009, or (FIGS. 26C and 26D) GII.4/2012-1 in the absence or presence of the indicated bile for 1 hour at 37° C.
as §1
One can analyze these samples by mass spectroscopy to determine the bile acid, lipid, fatty acid and/or cholesterol content. Bile was also fractionated based on filtration through different molecular cut-off filters. […]
In general terms: Real-time PCR tracks product formation cycle by cycle.

For assay [4], the system named is porcine enteric calicivirus. Conditions: Flynn and Saif, 1988; Chang et al., 2004; cited from earlier work.
Assay [5] has as its system TCH04-577 GII.3 HuNoV. The experiment in a line: GII.3 replication in jejunal enteroids with acid sphingomyelinase inhibitors (RT-qPCR). In kind it is cell-based, human norovirus. To be noted: inhibitor present 1 hr before and during 24 hrs. The procedure:
FIG. 34. Acid sphingomyelinase (ASM) inhibitors suppress GII.3 HuNoV replication. Jejunal enteroids were pretreated with inhibitors for 1 hr and inoculated with TCH04-577 for 1 hr, washed twice with CMGF(−) and cultured for 24 hrs in the presence of the inhibitors. RNA was extracted from cells and medium at 1 and 24 hpi and genome equivalents were analyzed by RT-qPCR.
Acid sphingomyelinase (ASM) that converts sphingomyelin into ceramide is involved in HuNoV infectivity, in at least certain embodiments.

For the next assay, the system named is TCH11-64 GII.4 HuNoV. The experiment in a line: GII.4 infection of jejunal enteroids after cholesterol extraction or trypsin treatment (VP1-positive cells). The format is cell-based, human norovirus. Conditions: 24 hpi. The procedure:
FIG. 35. Cholesterol extraction using methyl-β-cyclodextrin or treatment of cells with trypsin reduces HuNoV infection. Jejunal enteroids were untreated or treated for 45 min with methyl-β-cyclodextrin (MβCD) or 15 min with trypsin. Trypsin was inhibited with aprotinin and then the monolayer was washed prior to infection. MβCD was present during and after infection. Enteroids were infected with 3×10^6 genome equivalents of TCH11-64 GII.4 HuNoV. Enteroid monolayers were fixed at 24 hpi, VP1 detected by immunofluorescence and the number of VP1-positive cells counted per well.
In specific embodiments of the disclosure, HuNoV use a proteinaceous receptor in lipid rafts for infection. Lipid rafts are specialized domains of the cell membrane and are central for the spatial organization of receptors and signaling molecules. […] Identification of the proteinaceous molecule(s) that function as the receptor for HuNoV replication will allow production of new, simple cell systems that express this receptor and that will support HuNoV replication.

The subject of the next assay is GII.4/2012-1 HuNoV. Description: GII.4/2012-1 replication and CPE in jejunal HIEs with polymyxin B-treated stool filtrate. Conditions: inoculation with polymyxin B-treated samples. In kind it is cell-based, human norovirus. On the procedure: FIGS. 21A-21C. […] (FIG. 21A) GII.4/2012-1 stool filtrates were not treated (−) or treated (+) with 100 μg/m polymyxin B for 24 hours. Then, 9×10^5 genome equivalents of the filtrates were inoculated onto each jejunal HIE monolayer for 1 hour. The monolayers were washed twice with CMGF(−) medium and cultured in differentiation medium. […] Error bars denote standard deviation. (FIG. 21B) Gamma irradiated or non-irradiated GII.4/2012-1 stool filtrates were either not treated (−) or treated (+) with polymyxin B for 24 hours. Jejunal HIE monolayers were inoculated with […] for 1 hour as described above. […]
We next evaluated the growth characteristics of HuNoV infection by assessing cytopathic effect (CPE), antigen detection, and the kinetics of infection. […] Two particle sizes were detected (FIG. 15D), with particles of the expected size (31.6+/−3.3 nm) and some smaller particles (FIG. 15D inset, 18.5+/−3.7 nm). […] By Western blot analysis, nonstructural polyprotein synthesis and processing (as evidenced by the detection of several VPg-containing polyprotein processing intermediates) and capsid protein (VP1) production were first detected at 12 hpi in infected cells but not at 1 or 6 hpi or in mock-infected cells (FIG. 15E). Consistent with the production of virus particles (FIG. 15D), VP1 was detected in the culture supernatant by 24 hpi (FIG. 15E). […]

Assay [6] has as its system GI.1, GII.3, GII.17 HuNoVs. Description: Replication of other HuNoV strains in jejunal HIE monolayers with components of the intestinal milieu. Conditions: GI.1, GII.3, GII.17 in jejunal HIE monolayers.
Method: The monolayers were washed three times with CMGF(−) medium and cultured for the indicated days in differentiation medium in the absence (0%) or presence of the indicated concentrations of bile. At 1 hour and the indicated time post-inoculation, the cells and medium were harvested, RNA extracted and viral genome equivalents quantified by RT-qPCR. Data represent the mean of three wells for each treatment and time point. Error bars denote standard deviation. *, P<0.05 comparing genome equivalents from 1 hpi to the indicated time points.
We next tested whether monolayer cultures of jejunal HIEs could support replication of other HuNoV strains (GI.1, GII.3, GII.17). […] Consequently, several components of the intestinal milieu were assessed for their ability to promote replication of these HuNoVs in HIE monolayers.

Like-named read-outs stand apart in the source and are kept apart here.

Turning to `C[C@H](CCC(=O)O)[C@H]1CC[C@H]2[C@@H]3[C@H](O)C[C@@H]4C[C@H](O)CC[C@]4(C)[C@H]3C[C@H](O)[C@]12C` [CA, cholic acid], the fold induction at 500 µM in the assay with TCH04-577 GII.3 HuNoV [1] was in the range of 49 to 63.

Turning to `C[C@H](CCC(=O)O)[C@H]1CC[C@H]2[C@@H]3[C@H](O)C[C@@H]4C[C@H](O)CC[C@]4(C)[C@H]3CC[C@]12C` [CDCA, chenodeoxycholic acid], the “Fold increase in viral genome copies compared to no bile (0-72 hpi)” value (shortened to “Fold increase … to no bile (0-72 hpi)”) in the assay on TCH04-577 GII.3 HuNoV [2] (bile acid 100 uM) is reported as “no increase”.

For the molecule `CCCCCCCCCCCCC/C=C/[C@@H](O)[C@H](CO)NC(C)=O` [Ceramide, C2-ceramide], the GII.3 replication entry in the assay on TCH04-577 GII.3 HuNoV [3] is “enhances”.

For the molecule `C[C@H](CCC(=O)NCC(=O)O)[C@H]1CC[C@H]2[C@@H]3[C@H](O)C[C@@H]4C[C@H](O)CC[C@]4(C)[C@H]3C[C@H](O)[C@]12C` [GCA, Glycocholic acid], the fold induction at 500 µM in the assay on TCH04-577 GII.3 HuNoV [1] turned out to be 48.

For `CC(CCC(=O)NCC(=O)O)C1CCC2C3C(O)CC4CC(O)CCC4(C)C3CCC12C` (stereo not shown) [GCDCA, Glycochenodeoxycholic acid], the GII.4 replication result with GII.4 HuNoV is reported as “can enhance”. In the assay on TCH04-577 GII.3 HuNoV [1], the fold induction at 500 µM was 71 to 106.

`CC(CCC(=O)NCC(=O)O)C1CCC2C3CCC4CC(O)CCC4(C)C3CC(O)C12C` (stereo not shown) [GDCA, glycodeoxycholic acid]: the fold induction at 500 µM in the assay with TCH04-577 GII.3 HuNoV [1] was 160.

For `C[C@H](CCC(=O)NCCS(=O)(=O)O)[C@H]1CC[C@H]2[C@@H]3[C@H](O)C[C@@H]4C[C@H](O)CC[C@]4(C)[C@H]3C[C@H](O)[C@]12C` [TCA, Taurocholic acid], in the assay with TCH04-577 GII.3 HuNoV [1], the fold induction at 500 µM amounted to 65.

As for `C[C@H](CCC(=O)NCCS(=O)(=O)O)[C@H]1CC[C@H]2[C@@H]3[C@H](O)C[C@@H]4C[C@H](O)CC[C@]4(C)[C@H]3CC[C@]12C` [TCDCA, Taurochenodeoxycholic acid], in the assay with TCH04-577 GII.3 HuNoV [2] (bile acid 500 uM), the “Fold increase … to no bile (0-72 hpi)” value was 48-103 fold.

For the molecule `C[C@H](CCC(=O)NCCS(=O)(=O)O)[C@H]1CC[C@H]2[C@@H]3CC[C@@H]4C[C@H](O)CC[C@]4(C)[C@H]3C[C@H](O)[C@]12C` [TDCA, Taurodeoxycholic acid], in the assay on TCH04-577 GII.3 HuNoV [1], the fold induction at 500 µM was 95.

Turning to `C[C@H](CCC(=O)NCCS(=O)(=O)O)[C@H]1CC[C@H]2[C@@H]3CC[C@@H]4C[C@H](O)CC[C@]4(C)[C@H]3CC[C@]12C` [TLCA, taurolithocholic acid], in the assay on TCH04-577 GII.3 HuNoV [1], the fold induction at 500 µM was 268.

Consider `C[C@H](CCC(=O)NCCS(=O)(=O)O)[C@H]1CC[C@H]2[C@@H]3[C@@H](O)C[C@@H]4C[C@H](O)CC[C@]4(C)[C@H]3CC[C@]12C` [TUDCA, Tauroursodeoxycholic acid], for which, in [4], the “replication of porcine enteric calicivirus” value is reported as “did not enhance”. Besides, the fold induction at 500 µM with TCH04-577 GII.3 HuNoV [1] is 27.

Turning to `C[C@H](CCC(=O)O)[C@H]1CC[C@H]2[C@@H]3[C@@H](O)C[C@@H]4C[C@H](O)CC[C@]4(C)[C@H]3CC[C@]12C` [UDCA, ursodeoxycholic acid], in the assay with TCH04-577 GII.3 HuNoV [2] (bile acid 500 uM), the “Fold increase … to no bile (0-72 hpi)” value is recorded as “no increase”.

Turning to `CN(C)CCC=C1c2ccccc2CCc2ccccc21` [amitriptyline], in the assay with TCH04-577 GII.3 HuNoV [5], the GII.3 replication result is listed as “significantly reduced” and the “dose dependence of the effect on GII.3 replication” value is recorded as “dose-dependent decrease”.

For the molecule `CN(C)CCCN1c2ccccc2Sc2ccc(Cl)cc21` [chlorpromazine], in the assay with TCH04-577 GII.3 HuNoV [5], the GII.3 replication result is on record as “significantly reduced” and the “dose dependence of the effect on GII.3 replication” value is given as “dose-dependent decrease”.

methyl-β-cyclodextrin: the “GII.4 infection (VP1-positive cells per well)” value in the assay on TCH11-64 GII.4 HuNoV is reported as “significantly reduced”.

On to polymyxin B, for which the CPE result in the assay on GII.4/2012-1 HuNoV was “not reduced”.

B1: trypsin: protease that cleaves proteins (protein, UniProt P00760 24-246, looked up)
Serine protease 1: IVGGYTCGANTVPYQVSLNSGYHFCGGSLINSQWVVSAAHCYKSGIQVRLGEDNINVVEGNEQFISASKSIVHPSYNSNTLNNDIMLIKLKSAASLNSRVASISLPTSCASAGTQCLISGWGNTKSSGTSYPDVLKCLKAPILSDSSCKSAYPGQITSNMFCAGYLEGGKDSCQGDSGGPVVCSGKLQGIVSWGSGCAQKNKPGVYTKVCNYVSWIKQTIASN
In the case of B1, the “GII.4 infection (VP1-positive cells per well)” value with TCH11-64 GII.4 HuNoV was “reduced”. Also, in assay [6], the HuNoV replication result is listed as “failed to enhance”.
